From patent publication US20250368664A1, “SURFACTANTS HAVING PEFA COMPOUNDS AND METHODS OF USE THEREOF” (Ruby Bio Inc., priority 2022, published 2025) come the findings set out here.

A short description of the data set: Solubility of nonionic surfactant in SDBS. Type of data set: physicochemical. The note with it: in combination with SDBS at the stated ratio.

Consider cetearyl glucoside [CGlucoside], for which the “solubility in SDBS” value is listed as “insoluble”.
